Experimental data published in patent US7507749B2, “Antitumor agents” (priority 2001, dated 2009).
Read-outs that look alike come from different tables or passages of the source.

Key:
[1] = system: mammary adenocarcinoma-17/Adr; assay: Test E: R-enantiomer of compound 22b and compound 22a against early stage mammary adenocarcinoma-17/Adr; assay type: in vivo
Description: Then, P.B.S. was added and the pH adjusted to 7 with HCl. A volume of 0.2 ml per injection was administered to animals intravenously. […] Then, P.B.S. was added and the pH was adjusted to 7 with HCl. A volume of 0.2 ml per injection was administered to animals intravenously.

colon carcinoma 26 = system: colon carcinoma 26
Description: In this trial the R-enantiomers of XK-469, compound 22c, and compound 22b were compared against advanced staged colon carcinoma 26 in female Balb/c mice. […] Cage #2 was 22b at 400 mg/kg and Cage #4 was 22c at 400 mg/kg.
The XK469-R, 22b, and 22c compound doses were all prepared the same, using 3% ethanol, 1% POE-80, and 0.5% sodium bicarbonate. The injection volume was 0.2 mu/mouse IV. […] The mice were Balb/c female mice: DOB Feb. 12, 2001; DOA Mar. 27, 2001; DOT Sep. 8, 2001, with an average body weight of 24.7 grams at the start of Rx administration. The tumor was Colon Carcinoma-26 passage 141; date of implant Sep. 8, 2001, and implanted at 30 to 60 mg fragments bilaterally SC. All tumors were 63 to 171 mg on day 6, the day of first Rx.

[2] = Cage 3, IV 36 mg/kg day 1, 48 mg/kg/inj qd 2-7, total 324 mg/kg
[3] = Cage 4, IV 7 inj, total 162 mg/kg
[4] = Cage 5, IV 7 inj, total 81 mg/kg
[5] = Cg 8, IV 110 mg/kg/inj days 6,10, total 220 mg/kg
[6] = Cg 6, IV 80 mg/kg/inj days 6,8,10,14,16, total 400 mg/kg
[7] = Cg 7, IV 50 mg/kg/inj days 6,8,10,13,15, total 250 mg/kg

SMILES: CC(Oc1ccc(Oc2ccc3ccc(F)cc3n2)cc1)C(=O)O (racemic) [Compound 22a, 2-[4-(7-fluoroquinolin-2-yloxy)phenoxy]propanoic acid]
- % Body Wt Loss at Nadir [1, 2]: −1.6%
- % T/C mass [1, 2]: 14%
- Activity Rating [1, 2]: ++ (1.3-1.9)
- Day of Nadir [1, 2]: 5 days
- Drug Deaths [1, 2]: 0/5
- Growth Delay [1, 2]: 5 days
- Log Kill [1, 2]: 1.5
- Median Tumor Mass on day 9 (Range) [1, 2]: 138 (63-207) mg
- Tumor Free day-23 [1, 2]: 0/5
- Neuromuscular toxicity ([1]; Cage 3, IV 48 mg/kg/inj, limits higher individual dosages): severe neuromuscular toxicity
- Duration of leg dysfunction (front legs) ([1]; Cage 3, IV 48 mg/kg/inj, longer for the rear legs): 15 min
- % Body Wt Loss at Nadir [1, 3]: −1.5%
- % T/C mass [1, 3]: >100%
- Activity Rating [1, 3]: inactive
- Day of Nadir [1, 3]: 5 days
- Drug Deaths [1, 3]: 0/5
- Growth Delay [1, 3]: 1 days
- Log Kill [1, 3]: 0.3
- Median Tumor Mass on day 9 (Range) [1, 3]: 975 (252-1836) mg
- Tumor Free day-23 [1, 3]: 0/5
- % Body Wt Loss at Nadir [1, 4]: −3.0%
- % T/C mass [1, 4]: 77%
- Activity Rating [1, 4]: inactive
- Day of Nadir [1, 4]: 5 days
- Drug Deaths [1, 4]: 0/5
- Growth Delay [1, 4]: 1 days
- Log Kill [1, 4]: 0.3
- Median Tumor Mass on day 9 (Range) [1, 4]: 743 (725-1413) mg
- Tumor Free day-23 [1, 4]: 0/5

SMILES: O=P1(N(CCCl)CCCl)NCCCO1 (centres unmarked) [Cytoxan]
- % Body Wt change at nadir (colon carcinoma 26; [5]): −9.4%
- Activity Rating (colon carcinoma 26; [5]): no meaningful activity
- CR's (colon carcinoma 26; [5]): 0/5
- Drug Deaths (colon carcinoma 26; [5]): 0/5
- Growth Delay (colon carcinoma 26; [5]): 1 days
- Log Kill (colon carcinoma 26; [5]): 0.2
- Median time for tumors to 700 mg (range) (colon carcinoma 26; [5]): 14 (12-15) days
- PR's (colon carcinoma 26; [5]): 0/5
- Tumor Free day-156 (colon carcinoma 26; [5]): 0/5
- day of nadir (colon carcinoma 26; [5]): 12 days

SMILES: CC(Oc1ccc(Oc2cnc3ccc(Cl)cc3n2)cc1)C(=O)[O-].[Na+] (centres unmarked) [XK469-R]
- % Body Wt change at nadir (colon carcinoma 26; [6]): −8.1%
- Activity Rating (colon carcinoma 26; [6]): + (0.7-1.2)
- CR's (colon carcinoma 26; [6]): 0/6
- Drug Deaths (colon carcinoma 26; [6]): 0/6
- Growth Delay (colon carcinoma 26; [6]): 5 days
- Log Kill (colon carcinoma 26; [6]): 0.9
- Median time for tumors to 700 mg (range) (colon carcinoma 26; [6]): 18 (15-20) days
- PR's (colon carcinoma 26; [6]): 0/6
- Tumor Free day-156 (colon carcinoma 26; [6]): 0/6
- day of nadir (colon carcinoma 26; [6]): 13 days
- % Body Wt change at nadir (colon carcinoma 26; [7]): −4.0%
- Activity Rating (colon carcinoma 26; [7]): inactive
- CR's (colon carcinoma 26; [7]): 0/6
- Drug Deaths (colon carcinoma 26; [7]): 0/6
- Growth Delay in Days (colon carcinoma 26; [7]): none
- Log Kill (colon carcinoma 26; [7]): none
- Median time for tumors to 700 mg (range) (colon carcinoma 26; [7]): 13 (11.5-20) days
- PR's (colon carcinoma 26; [7]): 0/6
- Tumor Free day-156 (colon carcinoma 26; [7]): 0/6
- day of nadir (colon carcinoma 26; [7]): 13 days
